In patent publication US20100280019A1, “ISOXAZOLES” (priority 2009, published 2010) one finds Ki data, which are given here for eleven compounds.

pKi: −log10 of the molar value.

This assay deals with T1, GABA A α5 (human receptors of composition α5β3γ2) (Homo sapiens, UniProt P18507+P31644).
T1 construct: expressed in transfected cells; host or cells: HEK293, transiently transfected; membranes prepared from cell pellets
Kind of assay: [3H]flumazenil competition binding, HEK293 cells expressing human GABA A α5β3γ2 receptors. Particulars: [3H]-Flumazenil 0.5 nM, means of two determinations, read-out: hKi (GABA Aα5). As to the method:
The affinity of compounds at GABA A receptor subtypes was measured by competition for [^3H]flumazenil (85 Ci/mmol; Roche) binding to HEK293 cells expressing rat (stably transfected) or human (transiently transfected) receptors of composition α1β3γ2, α2β3γ2, α3β3γ2 and α5β3γ2.
Cell pellets were suspended in Krebs-tris buffer (4.8 mM KCl, 1.2 mM CaCl2, 1.2 mM MgCl2, 120 mM NaCl, 15 mM Tris; pH 7.5; binding assay buffer), homogenized by polytron for ca. 20 sec on ice and centrifuged for 60 min at 4° C. (50000 g; Sorvall, rotor: SM24=20000 rpm). The cell pellets were resuspended in Krebs-tris buffer and homogenized by polytron for ca. 15 sec on ice. Protein was measured (Bradford method, Bio-Rad) and aliquots of 1 mL were prepared and stored at −80° C.
Radioligand binding assays were carried out in a volume of […] (96-well plates) which contained […] of cell membranes, [^3H]-Flumazenil at a concentration of 1 nM for α1, α2, α3 subunits and 0.5 nM for α5 subunits and the test compound in the range of […]. Nonspecific binding was defined by 10^−5 M diazepam and typically represented less than 5% of the total binding. Assays were incubated to equilibrium for 1 hour at 4° C. and harvested onto GF/C uni-filters (Packard) by filtration using a Packard harvester and washing with ice-cold wash buffer (50 mM Tris; pH 7.5). After drying, filter-retained radioactivity was detected by liquid scintillation counting. Ki values were calculated using Excel-Fit (Microsoft) and are the means of two determinations.
Representative test results, obtained by the above described assay measuring binding affinity to HEK293 cells expressing human (h) receptors, are shown in table 1 below.
Regarding `Cc1onc(-c2ccccc2)c1COc1ccc(C(=O)NN)cn1` [Example 1, 6-((5-Methyl-3-phenyl-isoxazol-4-yl)-methoxy)-nicotinic acid hydrazide], the pKi is 8.27.
Regarding `Cc1onc(-c2ccccc2)c1COc1ccc(C(=O)NN2CCOCC2)cn1` [Example 2, 6-((5-Methyl-3-phenyl-isoxazol-4-yl)-methoxy)-N-morpholin-4-yl-nicotinamide], the pKi is 9.22.
The figure for `Cc1onc(-c2ccccc2)c1COc1ccc(C(=O)NN2CCCCC2)cn1` [Example 3, 6-((5-Methyl-3-phenyl-isoxazol-4-yl)-methoxy)-N-piperidin-1-yl-nicotinamide] is 8.40; for `Cc1onc(-c2ccccc2)c1COc1ccc(C(=O)NN2CCCC2)cn1` [Example 4, 6-((5-Methyl-3-phenyl-isoxazol-4-yl)-methoxy)-N-pyrrolidin-1-yl-nicotinamide] it is 8.59.
`Cc1onc(-c2ccccc2)c1COc1ccc(C(=O)NN2CCS(=O)(=O)CC2)cn1` [Example 5, N-(1,1-Dioxo-1,6-thiomorpholin-4-yl)-6-((5-methyl-3-phenyl-isoxazol-4-yl)-methoxy)-nicotinamide]: the pKi is 8.59.
As to `Cc1onc(-c2ccccc2)c1COc1ccc(C(=O)NNS(C)(=O)=O)cn1` [Example 6, 6-((5-Methyl-3-phenyl-isoxazol-4-yl)-methoxy)-nicotinic acid N′-(methylsulfonyl)-hydrazide], the pKi was 8.32.
As to `Cc1onc(-c2ccc(F)cn2)c1COc1ccc(C(=O)NN2CCOCC2)cn1` [Example 7, 6-[(3-(5-Fluoro-pyridin-2-yl)-5-methyl-isoxazol-4-yl)-methoxy]-N-morpholin-4-yl-nicotinamide], the pKi was 9.40.
Take `CCCCc1noc(C)c1COc1ccc(C(=O)NN2CCOCC2)cn1` [Example 8, 6-((3-Butyl-5-methyl-isoxazol-4-yl)-methoxy)-N-morpholin-4-yl-nicotinamide]: the pKi was 8.19.
As for `CCCCc1noc(C)c1COc1ccc(C(=O)NN2CCCC2)cn1` [Example 9, 6-((3-Butyl-5-methyl-isoxazol-4-yl)-methoxy)-N-pyrrolidin-1-yl-nicotinamide], the pKi is 7.71.
The figure for `CCCCc1noc(C)c1COc1ccc(C(=O)NN(C)C)cn1` [Example 10, 6-((3-Butyl-5-methyl-isoxazol-4-yl)-methoxy)-nicotinic acid 2,2-dimethyl-hydrazide] is 7.73; for `Cc1onc(-c2ccccc2)c1COc1ccc(C(=O)NN2CCOCC2)nn1` [Example 11, 6-((5-Methyl-3-phenyl-isoxazol-4-yl)-methoxy)-pyridazine-3-carboxylic acid morpholin-4-ylamide] it is 8.02.
